Test results taken from patent US20230295197A1, “STAT5 and STAT6 Degraders and Uses Thereof” (REGENTS OF THE UNIVERSITY OF MICHICAN, priority 2022, published 2023).
Where two headings read alike, the source gives them in different places.

Target: T1, STAT6 (Homo sapiens, UniProt P42226)
T1 construct: endogenous in cells; host or cells: MOLM-16, KU-812, SKNO1, MB231, L1236
T1 sequence (P42226 1-847): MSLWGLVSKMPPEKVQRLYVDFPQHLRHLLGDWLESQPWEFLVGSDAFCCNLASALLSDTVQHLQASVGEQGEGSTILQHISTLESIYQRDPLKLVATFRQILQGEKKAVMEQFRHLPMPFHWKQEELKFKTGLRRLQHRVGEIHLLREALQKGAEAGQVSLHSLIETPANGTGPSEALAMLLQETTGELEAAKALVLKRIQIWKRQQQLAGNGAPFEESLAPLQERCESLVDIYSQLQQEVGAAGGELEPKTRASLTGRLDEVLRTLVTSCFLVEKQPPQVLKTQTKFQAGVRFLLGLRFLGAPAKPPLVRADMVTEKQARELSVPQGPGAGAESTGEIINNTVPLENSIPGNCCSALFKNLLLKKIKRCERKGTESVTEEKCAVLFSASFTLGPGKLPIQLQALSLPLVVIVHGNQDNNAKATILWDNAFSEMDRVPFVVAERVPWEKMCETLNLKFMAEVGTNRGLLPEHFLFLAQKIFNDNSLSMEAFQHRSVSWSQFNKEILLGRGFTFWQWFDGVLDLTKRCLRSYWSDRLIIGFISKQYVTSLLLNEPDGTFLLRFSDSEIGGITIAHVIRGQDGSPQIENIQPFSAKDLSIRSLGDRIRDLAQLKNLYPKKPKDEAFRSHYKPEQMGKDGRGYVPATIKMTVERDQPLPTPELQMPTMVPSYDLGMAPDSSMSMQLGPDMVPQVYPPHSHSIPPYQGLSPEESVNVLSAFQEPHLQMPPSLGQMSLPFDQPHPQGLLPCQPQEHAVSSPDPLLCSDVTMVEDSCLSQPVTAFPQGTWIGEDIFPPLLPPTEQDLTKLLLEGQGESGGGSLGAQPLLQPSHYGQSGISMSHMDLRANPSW
Experiment: Immunoblotting (Western blot) analysis of STAT6 degradation efficiency of degraders in treated cells
Type: cell-based
Summary of the method: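 Protein levels of STAT5 and STAT6 were assessed in cells cultured at 37 °C in 10% FBS medium after compound exposure, by quantitative fluorescent Western blotting normalised to equal loading and referenced to GAPDH.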

[1] = MOLM-16 cells, class symbols, read-out: DC50 S6 MOLM-16
[2] = MOLM-16 cells, numeric bound, read-out: DC50 S6 MOLM-16
[3] = L1236 cells, read-out: DC50 S6 L1236

Row | Structure (SMILES) | DC50 [1] [µM] | DC50 [2] [µM] | DC50 [3] [µM]
1 | CC(C)(C)[C@H](NC(=O)c1cc2cc(C(F)(F)P(=O)(O)O)ccc2s1)C(=O)N1CCN(C(=O)CC(=O)NCCC#Cc2cccc3c2C(=O)N(C2CCC(=O)NC2=O)C3=O)C[C@H]1C(=O)N1CCC[C@H](c2ccccc2)C1 (stereo partly drawn) [Compound 523, ((2-(((2S)-1-((2S)-4-(3-((4-(2-(2,6-dioxopiperidin-3-yl)-1,3-dioxoisoindolin-4-yl)but-3-yn-1-yl)amino)-3-oxopropanoyl)-2-((R)-3-phenylpiperidine-1-carbonyl)piperazin-1-yl)-3,3-dimethyl-1-oxobutan-2-yl)carbamoyl)benzo[b]thiophen-5-yl)difluoromethyl)phosphonic acid] | > 10 |  | 
2 | CC(C)(C)[C@H](NC(=O)c1cc2cc(C(F)(F)P(=O)(O)O)ccc2s1)C(=O)N1C[C@@H](OCC(=O)NCC#Cc2ccc3c(c2)C(=O)N(C2CCC(=O)NC2=O)C3=O)C[C@H]1C(=O)N1CCC[C@H](c2ccccc2)C1 (stereo partly drawn) [Compound 494, ((2-(((2S)-1-((2S,4S)-4-(2-((3-(2-(2,6-dioxopiperidin-3-yl)-1,3-dioxoisoindolin-5-yl)prop-2-yn-1-yl)amino)-2-oxoethoxy)-2-((R)-3-phenylpiperidine-1-carbonyl)pyrrolidin-1-yl)-3,3-dimethyl-1-oxobutan-2-yl)carbamoyl)benzo[b]thiophen-5-yl)difluoromethyl)phosphonic acid] | > 10 |  | 
3 | CC(C)(C)[C@H](NC(=O)c1cc2cc(C(F)(F)P(=O)(O)O)ccc2s1)C(=O)N1C[C@H](OCCCCCC#Cc2ccc3c(c2)CN(C2CCC(=O)NC2=O)C3=O)C[C@H]1C(=O)N1CCC[C@H](c2ccccc2)C1 (stereo partly drawn) [Compound 603, ((2-(((2S)-1-((2S,4R)-4-((7-(2-(2,6-dioxopiperidin-3-yl)-1-oxoisoindolin-5-yl)hept-6-yn-1-yl)oxy)-2-((R)-3-phenylpiperidine-1-carbonyl)pyrrolidin-1-yl)-3,3-dimethyl-1-oxobutan-2-yl)carbamoyl)benzo[b]thiophen-5-yl)difluoromethyl)phosphonic acid] |  | > 0.3 | 
4 | CC(C)(C)[C@H](NC(=O)c1cc2cc(C(F)(F)P(=O)(O)O)ccc2s1)C(=O)N1C[C@@H](OCCCCC#Cc2cccc3c2CN(C2CCC(=O)NC2=O)C3=O)C[C@H]1C(=O)N1CCO[C@H](c2ccccc2)C1 (stereo partly drawn) [Compound 594, ((2-(((2S)-1-((2S,4S)-4-((6-(2-(2,6-dioxopiperidin-3-yl)-1-oxoisoindolin-4-yl)hex-5-yn-1-yl)oxy)-2-((R)-2-phenylmorpholine-4-carbonyl)pyrrolidin-1-yl)-3,3-dimethyl-1-oxobutan-2-yl)carbamoyl)benzo[b]thiophen-5-yl)difluoromethyl)phosphonic acid] | < 0.1 |  | 
5 | CC(C)(C)[C@H](NC(=O)c1cc2cc(C(F)(F)P(=O)(O)O)ccc2s1)C(=O)N1Cc2cc(OCC(=O)NCCCCCCCCCC#Cc3cccc4c3C(=O)N(C3CCC(=O)NC3=O)C4=O)ccc2C[C@H]1C(=O)N1CCC[C@H](c2ccccc2)C1 (stereo partly drawn) [Compound 561, ((2-(((2S)-1-((3S)-7-(2-((11-(2-(2,6-dioxopiperidin-3-yl)-1,3-dioxoisoindolin-4-yl)undec-10-yn-1-yl)amino)-2-oxoethoxy)-3-((R)-3-phenylpiperidine-1-carbonyl)-3,4-dihydroisoquinolin-2(1H)-yl)-3,3-dimethyl-1-oxobutan-2-yl)carbamoyl)benzo[b]thiophen-5-yl)difluoromethyl)phosphonic acid] | > 10 |  | 
6 | CC(C)(C)[C@H](NC(=O)c1cc2cc(C(F)(F)P(=O)(O)O)ccc2s1)C(=O)N1CCN(C(=O)CC(=O)NCCCCCCCCCC#Cc2cccc3c2C(=O)N(C2CCC(=O)NC2=O)C3=O)C[C@H]1C(=O)N1CCO[C@H](c2ccccc2)C1 (stereo partly drawn) [Compound 519, ((2-(((2S)-1-((2S)-4-(3-((11-(2-(2,6-dioxopiperidin-3-yl)-1,3-dioxoisoindolin-4-yl)undec-10-yn-1-yl)amino)-3-oxopropanoyl)-2-((R)-2-phenylmorpholine-4-carbonyl)piperazin-1-yl)-3,3-dimethyl-1-oxobutan-2-yl)carbamoyl)benzo[b]thiophen-5-yl)difluoromethyl)phosphonic acid] | > 10 |  | 
7 | Cc1ncsc1-c1ccc([C@H](C)NC(=O)[C@@H]2C[C@@H](O)CN2C(=O)[C@@H](NC(=O)CCCCCCCNC(=O)CC(=O)N2CCN(C(=O)[C@@H](NC(=O)c3cc4cc(C(F)(F)P(=O)(O)O)ccc4s3)C(C)(C)C)[C@H](C(=O)N3CCO[C@H](c4ccccc4)C3)C2)C(C)(C)C)cc1 [Compound 449, (difluoro(2-(((S)-1-((S)-4-(3-((8-(((S)-1-((2S,4R)-4-hydroxy-2-(((S)-1-(4-(4-methylthiazol-5-yl)phenyl)ethyl)carbamoyl)pyrrolidin-1-yl)-3,3-dimethyl-1-oxobutan-2-yl)amino)-8-oxooctyl)amino)-3-oxopropanoyl)-2-((R)-2-phenylmorpholine-4-carbonyl)piperazin-1-yl)-3,3-dimethyl-1-oxobutan-2-yl)carbamoyl)benzo[b]thiophen-5-yl)methyl)phosphonic acid] | > 10 |  | > 10
8 | CC(C)(C)[C@H](NC(=O)c1cc2cc(C(F)(F)P(=O)(O)O)ccc2s1)C(=O)N1C[C@@H](OCCCCCCC#Cc2cccc3c2CN(C2CCC(=O)NC2=O)C3=O)C[C@H]1C(=O)N1CCOC(c2cccc3ccccc23)C1 (stereo partly drawn) [Compound 612] |  | > 0.3 | 
9 | CC(C)(C)[C@H](NC(=O)c1cc2cc(C(F)(F)P(=O)(O)O)ccc2s1)C(=O)N1CCN(C(=O)CC(=O)NCCCCC#Cc2cccc3c2C(=O)N(C2CCC(=O)NC2=O)C3=O)C[C@H]1C(=O)N1CCC[C@H](c2ccccc2)C1 (stereo partly drawn) [Compound 527, ((2-(((2S)-1-((2S)-4-(3-((6-(2-(2,6-dioxopiperidin-3-yl)-1,3-dioxoisoindolin-4-yl)hex-5-yn-1-yl)amino)-3-oxopropanoyl)-2-((R)-3-phenylpiperidine-1-carbonyl)piperazin-1-yl)-3,3-dimethyl-1-oxobutan-2-yl)carbamoyl)benzo[b]thiophen-5-yl)difluoromethyl)phosphonic acid] | > 10 |  | 
10 | CC(C)(C)[C@H](NC(=O)c1cc2cc(C(F)(F)P(=O)(O)O)ccc2s1)C(=O)N1Cc2cc(OCC(=O)NCCCC#Cc3cccc4c3C(=O)N(C3CCC(=O)NC3=O)C4=O)ccc2C[C@H]1C(=O)N1CCC[C@H](c2ccccc2)C1 (stereo partly drawn) [Compound 553, ((2-(((2S)-1-((3S)-7-(2-((5-(2-(2,6-dioxopiperidin-3-yl)-1,3-dioxoisoindolin-4-yl)pent-4-yn-1-yl)amino)-2-oxoethoxy)-3-((R)-3-phenylpiperidine-1-carbonyl)-3,4-dihydroisoquinolin-2(1H)-yl)-3,3-dimethyl-1-oxobutan-2-yl)carbamoyl)benzo[b]thiophen-5-yl)difluoromethyl)phosphonic acid] | > 10 |  | 
11 | Cc1ncsc1-c1ccc([C@H](C)NC(=O)[C@@H]2C[C@@H](O)CN2C(=O)[C@@H](NC(=O)CCCCCNC(=O)CC(=O)N2CCN(C(=O)[C@@H](NC(=O)c3cc4cc(C(F)(F)P(=O)(O)O)ccc4s3)C(C)(C)C)[C@H](C(=O)N3CCO[C@H](c4ccccc4)C3)C2)C(C)(C)C)cc1 [Compound 447, (difluoro(2-(((S)-1-((S)-4-(3-((6-(((S)-1-((2S,4R)-4-hydroxy-2-(((S)-1-(4-(4-methylthiazol-5-yl)phenyl)ethyl)carbamoyl)pyrrolidin-1-yl)-3,3-dimethyl-1-oxobutan-2-yl)amino)-6-oxohexyl)amino)-3-oxopropanoyl)-2-((R)-2-phenylmorpholine-4-carbonyl)piperazin-1-yl)-3,3-dimethyl-1-oxobutan-2-yl)carbamoyl)benzo[b]thiophen-5-yl)methyl)phosphonic acid] | > 10 |  | > 10
12 | Cc1ncsc1-c1ccc([C@H](C)NC(=O)[C@@H]2C[C@@H](O)CN2C(=O)[C@@H](NC(=O)CCNC(=O)CC(=O)N2CCN(C(=O)[C@@H](NC(=O)c3cc4cc(C(F)(F)P(=O)(O)O)ccc4s3)C(C)(C)C)[C@H](C(=O)N3CCO[C@H](c4ccccc4)C3)C2)C(C)(C)C)cc1 [Compound 444, (difluoro(2-(((S)-1-((S)-4-(3-((3-(((S)-1-((2S,4R)-4-hydroxy-2-(((S)-1-(4-(4-methylthiazol-5-yl)phenyl)ethyl)carbamoyl)pyrrolidin-1-yl)-3,3-dimethyl-1-oxobutan-2-yl)amino)-3-oxopropyl)amino)-3-oxopropanoyl)-2-((R)-2-phenylmorpholine-4-carbonyl)piperazin-1-yl)-3,3-dimethyl-1-oxobutan-2-yl)carbamoyl)benzo[b]thiophen-5-yl)methyl)phosphonic acid] | > 10 |  | > 10
